Key:
[1] = biological target: T1, HER2 INS YVMA (Homo sapiens, UniProt P04626, INS775YVMA); experiment: Lance Kinase Activity Assay, HER2 INS YVMA (Her2 Exon 20 INSYVMA Lance); type: biochemical; conditions: biochemical Lance assay
T1 construct: purchased DPF
Method in brief: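 IC50 was fitted to sigmoidal curves of TR-FRET signal (665 and 615 nm emission after 340 nm excitation) from an Eu anti-phospho antibody binding the phosphorylated ULight peptide. The ATP-started reaction ran 1 h at RT and was then quenched with 10 mM EDTA plus antibody for a further 1 h. Compounds were tested as 8-point, 3-fold dilutions.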

[2] = biological target: Her2 Exon 20 INSYVMA Ba/F3 (Homo sapiens, UniProt P04626, DUP772-775, cells depend on it); experiment: Her2 Exon 20 INSYVMA Ba/F3 CellTiter-Glo; type: cell-based; conditions: CellTiter-Glo, 72 h, read-out: Her2 Exon 20 INSYVMA Ba/F3 CTG IC50
Method in brief: (§1)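 IC50 values come from dose–response fits of CellTiter-Glo luminescence in Ba/F3 cells treated with compound for 72 h at 37 °C, 5% CO2. Vehicle (DMSO) and 10 μM staurosporine wells set the assay window, with Z′ ≥0.5 required.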

[3] = biological target: EGFR Exon 20 INSNPH Ba/F3 (Homo sapiens, UniProt P00533, DUP771-773, cells depend on it); experiment: EGFR Exon 20 INSNPH Ba/F3 CellTiter-Glo; type: cell-based; conditions: CellTiter-Glo, 72 h, read-out: EGFR Exon 20 INSNPH Ba/F3 CTG IC50
Method in brief: as §1

[4] = biological target: EGFR T790ML858R (Homo sapiens, UniProt P00533, L858R/T790M); experiment: EGFR T790ML858R Lance assay; type: biochemical
Method: (§2) Inhibition is indicated as […] [nM] (“−”=not measured). Compounds having an activity designated as “A” provided an IC50≤100 nM; compounds having an activity designated as “B” provided an 100 nM<IC50≤500 nM; compounds having an activity designated as “C” provided an 500 nM<IC50≤1000 nM; compounds having an activity designated as “D” provided an 1000 nM<IC50≤100000 nM; and compounds having an activity designated as “E” provided an IC50>10000 nM.

[5] = biological target: EGFR wt (Homo sapiens, UniProt P00533); experiment: EGFR wt Lance assay; type: biochemical
Method: as §2

[6] = tested on: H1975; experiment: H1975 CellTiter-Glo; type: cell-based; conditions: Homo sapiens, NCI-H1975; 72 h compound incubation; read-out: H1975 CTG IC50
Method in brief: (§3)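 In this viability format, compound-treated cells sit 72 h at 37° C. before ATP content is quantified by luminescence, and IC50 is taken from the fitted dose-response curve.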

[7] = tested on: H1781; experiment: H1781 CellTiter-Glo; type: cell-based; conditions: NCI-H1781; 72 h compound incubation; read-out: H1781 CTG IC50
Method: 2. Measurement of Cellular Activity
The CellTiter-Glo Luminescent Cell Viability Assay (Promega) is a homogeneous method of determining the number of viable cells in culture. It is based on quantification of ATP, indicating the presence of metabolically active cells. Cells are seeded on day 1 at cell numbers that assure assay linearity and optimal signal intensity. After incubation for 24 h in humidified chambers at 37° C. and 5% CO2, compounds in DMSO are added at different concentrations. Cells are further incubated for 72 h at 37° C. and 5% CO2. Cells treated with the compound vehicle DMSO are used as positive controls and cells treated with 10 μM Staurosporine serve as negative controls. At day 5 the CellTiter Glo Reagent is prepared according to the instructions of the kit (Promega Inc.): Reagent is mixed 1:1 with cell culture medium. Thereon, mixture and assay plates are equilibrated at room temperature for 20 min. Equal volumes of the reagent-medium-mixture is added to the volume of culture medium present in each well. The plates are mixed at ˜200 rpm for 2 minutes on an orbital shaker. The microplates are then incubated at room temperature for 10 minutes for stabilization of the luminescent signal. Following incubation the luminescence is recorded on a Victor microplate reader (Perkin Elmer) using a 200 ms integration time. The data is then analyzed with Excel using the XLFIT Plugin (dose response Fit 205) for IC50-determination. As quality control the Z′-factor is calculated from 16 positive and negative control values. Only assay results showing a Z′-factor ≥0.5 are used for further analysis.
as §2

[8] = tested on: A431; experiment: A431 CellTiter-Glo; type: cell-based; conditions: Homo sapiens, A-431; 72 h compound incubation; read-out: A431 CTG IC50
Method in brief: as §3

[9] = Metabolic stability in mouse liver microsomes without cofactor NADPH; type: in vitro ADME; conditions: 3 μM test compound, mouse liver microsomes, without NADPH, 50 min, 37° C., LC-MS/MS
Method in brief: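 Cofactor-free incubation: no NADPH added to mouse liver microsomes, with compound at 3 μM and 37° C. Remaining parent was quantified by LC-MS/MS at time points up to 50 minutes to track depletion.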

EGFR wt, sequence (P00533 25-1210): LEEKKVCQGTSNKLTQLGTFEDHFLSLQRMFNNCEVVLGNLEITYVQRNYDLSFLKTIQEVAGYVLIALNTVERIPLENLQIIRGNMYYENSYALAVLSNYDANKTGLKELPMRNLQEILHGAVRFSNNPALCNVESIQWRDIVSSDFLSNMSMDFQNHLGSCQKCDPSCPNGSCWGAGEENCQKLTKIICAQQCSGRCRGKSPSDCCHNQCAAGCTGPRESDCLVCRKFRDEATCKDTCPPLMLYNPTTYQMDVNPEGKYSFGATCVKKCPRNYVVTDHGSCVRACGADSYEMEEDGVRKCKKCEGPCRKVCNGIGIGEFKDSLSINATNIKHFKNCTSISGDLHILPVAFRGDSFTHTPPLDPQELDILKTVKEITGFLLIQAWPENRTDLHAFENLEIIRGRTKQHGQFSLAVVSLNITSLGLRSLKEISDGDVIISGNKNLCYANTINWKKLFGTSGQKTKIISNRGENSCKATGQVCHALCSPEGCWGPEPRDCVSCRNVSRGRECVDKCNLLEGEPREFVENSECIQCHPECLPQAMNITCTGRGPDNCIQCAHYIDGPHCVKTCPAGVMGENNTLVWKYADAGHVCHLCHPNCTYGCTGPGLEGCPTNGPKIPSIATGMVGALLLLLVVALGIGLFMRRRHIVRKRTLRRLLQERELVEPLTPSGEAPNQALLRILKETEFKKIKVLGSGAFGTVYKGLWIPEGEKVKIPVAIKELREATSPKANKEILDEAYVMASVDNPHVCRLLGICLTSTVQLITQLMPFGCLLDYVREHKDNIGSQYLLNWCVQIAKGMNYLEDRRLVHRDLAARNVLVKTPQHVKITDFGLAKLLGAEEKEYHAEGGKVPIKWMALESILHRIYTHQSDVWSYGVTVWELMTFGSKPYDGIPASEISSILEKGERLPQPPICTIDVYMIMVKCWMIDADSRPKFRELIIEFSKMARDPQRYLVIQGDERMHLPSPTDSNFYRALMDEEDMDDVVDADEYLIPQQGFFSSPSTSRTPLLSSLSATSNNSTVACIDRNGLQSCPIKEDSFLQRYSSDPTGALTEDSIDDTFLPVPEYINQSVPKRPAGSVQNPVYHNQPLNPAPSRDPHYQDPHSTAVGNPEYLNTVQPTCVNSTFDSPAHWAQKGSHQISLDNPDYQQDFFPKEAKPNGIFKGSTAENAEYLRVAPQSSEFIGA
EGFR Exon 20 INSNPH Ba/F3, sequence (P00533 with tags, fused parts or gaps DUP771-773): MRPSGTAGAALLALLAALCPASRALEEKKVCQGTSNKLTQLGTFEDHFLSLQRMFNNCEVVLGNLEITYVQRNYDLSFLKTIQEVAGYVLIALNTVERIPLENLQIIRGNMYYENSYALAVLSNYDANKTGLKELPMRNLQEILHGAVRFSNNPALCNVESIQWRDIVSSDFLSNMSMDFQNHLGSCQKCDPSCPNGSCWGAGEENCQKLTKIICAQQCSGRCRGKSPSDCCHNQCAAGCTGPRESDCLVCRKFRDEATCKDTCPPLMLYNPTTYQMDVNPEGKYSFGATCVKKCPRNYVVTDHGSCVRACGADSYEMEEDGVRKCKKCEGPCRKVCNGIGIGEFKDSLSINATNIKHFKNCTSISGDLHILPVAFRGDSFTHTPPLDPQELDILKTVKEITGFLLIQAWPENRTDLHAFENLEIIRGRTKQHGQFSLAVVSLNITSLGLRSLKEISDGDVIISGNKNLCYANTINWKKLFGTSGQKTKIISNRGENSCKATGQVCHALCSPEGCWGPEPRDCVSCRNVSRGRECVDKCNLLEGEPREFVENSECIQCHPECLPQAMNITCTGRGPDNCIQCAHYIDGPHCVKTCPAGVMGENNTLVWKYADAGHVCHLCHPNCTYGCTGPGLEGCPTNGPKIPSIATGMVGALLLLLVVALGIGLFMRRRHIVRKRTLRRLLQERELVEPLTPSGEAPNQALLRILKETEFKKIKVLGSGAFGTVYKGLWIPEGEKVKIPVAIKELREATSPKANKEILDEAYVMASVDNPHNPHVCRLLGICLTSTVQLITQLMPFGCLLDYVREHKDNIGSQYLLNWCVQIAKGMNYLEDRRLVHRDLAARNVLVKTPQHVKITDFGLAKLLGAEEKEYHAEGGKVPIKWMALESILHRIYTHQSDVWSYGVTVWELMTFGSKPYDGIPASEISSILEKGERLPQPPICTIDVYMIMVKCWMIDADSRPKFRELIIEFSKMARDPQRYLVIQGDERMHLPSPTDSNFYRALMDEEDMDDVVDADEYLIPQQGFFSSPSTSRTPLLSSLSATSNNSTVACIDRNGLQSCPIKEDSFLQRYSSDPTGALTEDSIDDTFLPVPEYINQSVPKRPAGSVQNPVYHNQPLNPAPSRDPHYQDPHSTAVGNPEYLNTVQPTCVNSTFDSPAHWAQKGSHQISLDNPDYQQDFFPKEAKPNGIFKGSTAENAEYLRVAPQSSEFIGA
EGFR T790ML858R, sequence (P00533 25-1210 T790M/L858R): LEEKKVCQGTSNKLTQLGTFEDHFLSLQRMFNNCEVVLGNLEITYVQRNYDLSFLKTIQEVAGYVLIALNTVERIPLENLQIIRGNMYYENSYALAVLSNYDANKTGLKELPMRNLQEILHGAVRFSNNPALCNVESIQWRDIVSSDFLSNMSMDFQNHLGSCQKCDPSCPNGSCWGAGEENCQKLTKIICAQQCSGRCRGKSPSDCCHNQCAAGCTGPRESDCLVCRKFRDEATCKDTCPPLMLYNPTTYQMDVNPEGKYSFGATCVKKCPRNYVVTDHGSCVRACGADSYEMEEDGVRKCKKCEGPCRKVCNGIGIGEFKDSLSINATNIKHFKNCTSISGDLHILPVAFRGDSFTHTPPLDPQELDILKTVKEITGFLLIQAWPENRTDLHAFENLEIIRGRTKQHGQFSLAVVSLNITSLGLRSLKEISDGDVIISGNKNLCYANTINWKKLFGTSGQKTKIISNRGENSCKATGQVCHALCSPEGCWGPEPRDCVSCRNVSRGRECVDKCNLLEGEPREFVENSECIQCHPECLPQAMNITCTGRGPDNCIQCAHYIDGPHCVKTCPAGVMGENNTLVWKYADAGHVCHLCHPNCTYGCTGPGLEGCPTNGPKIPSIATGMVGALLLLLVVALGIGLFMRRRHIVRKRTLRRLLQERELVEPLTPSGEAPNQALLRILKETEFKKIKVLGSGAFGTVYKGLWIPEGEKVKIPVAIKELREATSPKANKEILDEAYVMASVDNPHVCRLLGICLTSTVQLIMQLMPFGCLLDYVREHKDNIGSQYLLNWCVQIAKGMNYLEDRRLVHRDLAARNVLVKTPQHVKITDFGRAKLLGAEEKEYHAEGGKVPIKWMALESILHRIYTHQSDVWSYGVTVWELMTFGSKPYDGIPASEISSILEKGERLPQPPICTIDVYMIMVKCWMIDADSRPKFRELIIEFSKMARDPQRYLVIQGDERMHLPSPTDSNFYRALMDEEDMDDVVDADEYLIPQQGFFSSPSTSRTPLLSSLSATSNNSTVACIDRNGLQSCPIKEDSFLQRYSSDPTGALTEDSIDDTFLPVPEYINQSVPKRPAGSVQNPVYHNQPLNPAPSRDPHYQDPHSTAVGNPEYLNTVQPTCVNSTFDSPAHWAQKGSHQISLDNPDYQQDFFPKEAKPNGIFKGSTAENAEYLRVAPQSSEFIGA
Her2 Exon 20 INSYVMA Ba/F3, sequence (P04626 with tags, fused parts or gaps DUP772-775): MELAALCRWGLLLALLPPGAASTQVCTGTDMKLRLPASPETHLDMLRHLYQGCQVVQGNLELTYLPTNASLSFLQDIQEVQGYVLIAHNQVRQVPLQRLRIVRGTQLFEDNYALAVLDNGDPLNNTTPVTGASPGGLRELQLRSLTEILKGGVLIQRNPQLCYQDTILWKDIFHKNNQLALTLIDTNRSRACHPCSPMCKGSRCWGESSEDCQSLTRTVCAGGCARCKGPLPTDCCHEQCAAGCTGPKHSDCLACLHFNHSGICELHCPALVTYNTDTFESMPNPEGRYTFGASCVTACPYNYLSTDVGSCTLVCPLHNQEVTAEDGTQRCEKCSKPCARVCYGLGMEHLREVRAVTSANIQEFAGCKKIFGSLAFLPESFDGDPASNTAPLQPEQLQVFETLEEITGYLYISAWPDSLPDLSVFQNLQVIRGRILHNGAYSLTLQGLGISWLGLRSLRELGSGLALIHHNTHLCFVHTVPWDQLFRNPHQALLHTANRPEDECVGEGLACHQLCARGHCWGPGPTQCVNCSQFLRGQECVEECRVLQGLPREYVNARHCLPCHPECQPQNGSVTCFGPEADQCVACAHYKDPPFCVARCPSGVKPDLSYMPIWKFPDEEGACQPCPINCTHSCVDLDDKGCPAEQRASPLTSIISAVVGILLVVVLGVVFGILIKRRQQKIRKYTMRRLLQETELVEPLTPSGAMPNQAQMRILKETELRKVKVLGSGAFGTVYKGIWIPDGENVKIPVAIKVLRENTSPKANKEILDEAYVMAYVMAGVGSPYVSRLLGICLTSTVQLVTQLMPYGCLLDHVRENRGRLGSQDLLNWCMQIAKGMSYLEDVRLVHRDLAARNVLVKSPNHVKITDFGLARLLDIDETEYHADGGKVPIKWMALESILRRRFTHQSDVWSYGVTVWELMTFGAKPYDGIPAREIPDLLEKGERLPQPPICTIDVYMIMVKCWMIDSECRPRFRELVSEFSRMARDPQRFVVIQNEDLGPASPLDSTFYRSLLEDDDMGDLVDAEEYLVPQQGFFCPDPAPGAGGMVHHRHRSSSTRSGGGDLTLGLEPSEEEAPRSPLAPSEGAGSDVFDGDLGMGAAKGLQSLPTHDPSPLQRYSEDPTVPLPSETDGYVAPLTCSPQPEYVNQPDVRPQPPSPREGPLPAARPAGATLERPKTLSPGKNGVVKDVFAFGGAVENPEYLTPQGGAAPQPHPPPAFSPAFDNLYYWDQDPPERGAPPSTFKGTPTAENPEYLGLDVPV

SMILES	IC50 [1] [nM]	GI50 [2] [nM]	GI50 [3] [nM]	IC50 [4] [nM]	IC50 [5] [nM]	IC50 [6] [nM]	IC50 [7] [nM]	IC50 [8] [nM]	Stability in presence of mouse liver microsomes without cofactor NADPH [% remaining after 50 min] [9] [% remaining after 50 min]
C=CC(=O)Nc1cc(-c2c(-c3cccc(OCCN(C)C)c3)[nH]c3nccc(Cl)c23)ccc1C [Example 28, N-(5-(4-chloro-2-(3-(2-(dimethylamino)ethoxy)phenyl)-1H-pyrrolo[2,3-b]pyridin-3-yl)-2-methylphenyl)acrylamide]	≤ 100	100 to 500	100 to 500	≤ 100	≤ 100	≤ 100	100 to 500	100 to 500	>99
C=CC(=O)Nc1cc(-c2c(-c3ccc(N4CCN(C(C)=O)CC4)cc3)[nH]c3nccc(Cl)c23)ccc1C [Example 8, N-(5-(2-(4-(4-acetylpiperazin-1-yl)phenyl)-4-chloro-1H-pyrrolo[2,3-b]pyridin-3-yl)-2-methylphenyl)acrylamide]	≤ 100	100 to 500	100 to 500	≤ 100	≤ 100	≤ 100	100 to 500	100 to 500	>99
C=CC(=O)Nc1cc(-c2c(-c3ccc(C(=O)N4CCOCC4)cc3)[nH]c3nccc(Cl)c23)ccc1C [Example 11, N-(5-(4-chloro-2-(4-(morpholine-4-carbonyl)phenyl)-1H-pyrrolo[2,3-b]pyridin-3-yl)-2-methylphenyl)acrylamide]	≤ 100	100 to 500	100 to 500	≤ 100	≤ 100	≤ 100	500 to 1000	100 to 500	>99
C=CC(=O)Nc1cc(-c2c(-c3ccc(CN(C)C)cc3)[nH]c3nccc(Cl)c23)ccc1C [Example 10, N-(5-(4-chloro-2-(4-((dimethylamino)methyl)phenyl)-1H-pyrrolo[2,3-b]pyridin-3-yl)-2-methylphenyl)acrylamide]	≤ 100	≤ 100	≤ 100	≤ 100	≤ 100	≤ 100	100 to 500	500 to 1000	>99
C=CC(=O)N1CCc2ccc(-c3c(-c4ccc(CN5CCN(C)CC5)cc4)[nH]c4nccc(Cl)c34)cc21 [Example 60, 1-(6-(4-chloro-2-(4-((4-methylpiperazin-1-yl)methyl)phenyl)-1H-pyrrolo[2,3-b]pyridin-3-yl)indolin-1-yl)prop-2-en-1-one]	≤ 100	100 to 500	100 to 500	≤ 100	≤ 100	100 to 500	500 to 1000	500 to 1000	>99
C=CC(=O)Nc1cc(-c2c(-c3ccc(CN4CCOCC4)cc3)[nH]c3nccc(Cl)c23)ccc1C [Example 5, N-(5-(4-chloro-2-(4-(morpholinomethyl)phenyl)-1H-pyrrolo[2,3-b]pyridin-3-yl)-2-methylphenyl)acrylamide]	≤ 100	100 to 500	100 to 500	≤ 100	≤ 100	≤ 100	> 10000	> 10000	>99

From US20220370440A1 (Lead Discovery Center GmbH, priority 2018, published 2022)
